# Source: PMC7767506, “Synthesis and Characterization of Store-Operated Calcium Entry Inhibitors Active in the Submicromolar Range” (International Journal of Molecular Sciences, 2020)
# Assays:
# [1] = test system: Mn2+ influx through SOCC in Jurkat cells; experiment: Mn2+ influx by Indo-1 quenching in Jurkat cells; assay type: cell-based, human; conditions: 1 µM
# Excerpt: As [Ca^2+]cyt results from a balance between Ca^2+ influx and efflux, this decay was due to the activity of the plasma membrane Ca^2+ ATPases (“PMCA”) and the Na^+/Ca^2+ exchanger (“NCX”) counteracting the SOCE (TG has blocked the SERCA activity, impairing Ca^2+ uptake in the ER). To ensure that compound P11 acted on the SOCE and not on the Ca^2+-efflux mechanisms, we next performed a Mn^2+-quenching experiment with Indo-1. Mn^2+ ions enter the cells through SOCC but cannot be pumped outside the cells by PMCA and NCX; once in the cells, Mn^2+ bound to Indo-1 and quenched its fluorescence measured at 430 nm. Thus, an increase of the Mn^2+ influx amplitude was associated with an increase of the Indo-1 quenching speed, and reversely.
# After a 10 min TG treatment to open the SOCC, 100 µM MnCl2 was added. Mn^2+ induced a quenching rate of −0.89 ± 0.05% Fo/s (n = 3, Figure 3A). […]
# To study directly the divalent ion influx through the SOCC with selected 2-APB analogs, we performed Mn^2+ quenching experiments. Mn^2+ ions bind to Indo-1 and quench the 430 nm emission wavelength fluorescence after excitation at 360 nm. The decrease of fluorescence is directly dependent on Mn^2+ entry through SOCC. […] After 60 s a 2-APB analog was added as indicated and the change in the curve slope was measured.
# [2] = test system: caspase-3 activity in Jurkat cells; experiment: Fluorometric caspase-3 activity assay (Ac-DEVD-AFC) in Jurkat cells; assay type: cell-based, human
# Experimental: To verify the mechanism of cell death induced by compound P11, we next performed caspase-3 activity assays using the fluorogenic Ac-DEVD-AFC substrate as well as a TUNEL assay.
# Caspase-3 activity was measured using the fluorogenic substrate Ac-DEVD-AFC (Tebu-bio, Le Perray-en-Yvelines, France) according to the manufacturer’s instructions. Briefly, 48-well plates were seeded with 10^6 Jurkat T cells per well. Cells were then incubated for 24 h with 0, 1, or 10 µg/mL PHA and 0 to 1 µM P11 in complete culture medium. After 24 h, cells were collected and lysed in RIPA lysis buffer supplemented with protease inhibitor cocktails (Life Science Biorad, Marnes la Coquette, France). The protein samples were quantified using the DC protein assay reagent (Biorad, Les Ulis, France). Cell lysates (50 µg) were diluted with reaction buffer (200 mM Hepes pH 7.4, 1 mM EDTA, 20% sucrose and 20 mM dithiothreitol) and incubated with the fluorogenic substrate (20 µM final concentration) for 45 min up to 7 h at 37 °C. The release of 7-amino-4-trifluoromethylcoumarin (AFC) was measured by fluorescence (excitation at 405 nm, emission at 505 nm) using a Victor3 plate reader (Perkin Elmer, Courtaboeuf, France).
# Jurkat cells = experiment: Cell death by trypan blue staining of Jurkat cells; assay type: cell-based, human
# Experimental: As this diminution in IL-2 synthesis can both be explained by the decrease of its synthesis by all cells, or by a decrease in the number of cells that can synthesize IL-2, we next evaluated cell death by trypan blue staining in the presence of PHA stimulation with and without the addition of compound P11.
# Forty-eight-well plates were seeded with 10^6 Jurkat T cells per well. Cells were then incubated for 24 h with or without 10 µg/mL PHA and 0 to 1 µM P11 in complete culture medium. After 24 h, supernatants were collected, and IL-2 amounts were quantified using a Quantikine Human IL-2 Immunoassay (R&D Systems Europe, Lille, France). Optical density (OD) was measured at 450 nm using a Victor3 plate reader (Perkin Elmer, Courtaboeuf, France). The concentration of supernatant IL-2 was determined from the OD curve obtained with the standard. Results were the mean of four repeats. In parallel plates, cell viability was accessed after treatment with trypan blue and counting with a Malassez hematimeter (Sigma-Aldrich, Saint Quentin Fallavier, France).
# [3] = test system: SOCE in DG75 (human Burkitt lymphoma cell line); experiment: Thapsigargin-induced SOCE in DG75 cells, Indo-1; assay type: cell-based
# Experimental: We also tested P11 on the DG75 (Burkitt B lymphoma), U937 (monocytic lymphoma), and MDA-MB231 (breast carcinoma) cell lines. […] Thus, in several cell lines, full inhibition of the SOCE was already obtained at a concentration of 100 nM (Figure 3B).
# [Ca^2+]cyt was recorded by a fluorimetric ratio technique as previously described. Leukocytes were spun and resuspended at a density of 10^6 cells/mL in Hepes buffered saline (HBS; 135 mM NaCl, 5.9 mM KCl, 1.2 mM MgCl2, 11.6 mM Hepes, 11.5 mM glucose adjusted to pH 7.3 with NaOH). Due to the presence of 0.002% Ca^2+ in the NaCl, this HBS medium contained 0.1 mM of Ca^2+. Then, cells were incubated in the dark with 4 μM Indo-1-AM for one hour at room temperature under slow agitation. […] Ultraviolet light of 360 nm was used for excitation of Indo-1, and emissions at 405 and 480 nm were recorded. […] The maximum Indo-1 fluorescence (Rmax) was obtained by adding 1 µM ionomycin to the cell suspension in the presence of 10 mM extracellular CaCl2. Minimum fluorescence was determined following the depletion of external Ca^2+ with 5 mM EGTA.
# To visualize the SOCE, cells were placed into the quartz cuvette and 0.5 EGTA was added just before the beginning of the recordings. […] In the dose-response experiments, different concentrations of 2-APB and its analogs were added 30 s prior to Ca^2+ readdition.
substance,measurement,setting,value
2-(dibiphenyl-4-ylboryloxy)ethanamine [P11],blockade of Mn2+ quenching rate,[1],≈ 90%
same,Indo-1 quenching rate by Mn2+,[1]; added 30 s prior to 100 µM MnCl2,-0.09 ± 0.01 % Fo/s
same,caspase-3 activity,"[2]; 10 µg/mL PHA + 1 µM P11, 24 h",3332 ± 113 AU
same,"caspase-3 activity, compound alone","[2]; P11 alone, up to 1 µM",did not induce any increase
same,concentration giving maximal activating effect on caspase-3 activity,"[2]; with 10 µg/mL PHA, 24 h",10 nM
same,dead cells (trypan blue),"Jurkat cells; 1 µM P11 alone, 24 h",4.0 ± 0.4%
same,dead cells (trypan blue),"Jurkat cells; PHA + 1 µM P11, 24 h",33.2 ± 1.3%
same,Ki,[3]; DG75 cells,32 ± 2 nM
same,concentration of full SOCE inhibition,[3]; in several cell lines (Figure 3B),100 nM
